{"source": "patent US9375496B2", "about": "“Halogenated compounds for cancer imaging and treatment and methods for their use” (The University of British Columbia, priority 2013, dated 2016)", "key": {"[1]": {"target": "T1, recombinant LBD of GR (Homo sapiens, UniProt P04150)", "T1 sequence (P04150 524-758 limits assumed)": "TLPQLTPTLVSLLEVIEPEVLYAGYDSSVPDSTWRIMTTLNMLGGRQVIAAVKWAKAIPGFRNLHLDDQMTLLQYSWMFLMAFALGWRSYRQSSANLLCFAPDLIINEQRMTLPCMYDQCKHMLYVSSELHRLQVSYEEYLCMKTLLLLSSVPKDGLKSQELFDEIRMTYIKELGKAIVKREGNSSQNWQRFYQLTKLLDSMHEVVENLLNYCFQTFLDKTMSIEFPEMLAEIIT", "assay": "Competitive ligand-binding assay (fluorescent polarization), recombinant GR LBD", "conditions": "1 nM fluorescently labeled ligand, 5 h incubation, serial dilution", "experimental": "Competitive ligand-binding assays to detect the displacement of fluorescently labeled ligand from recombinant LBDs (ligand binding domains) of AR, PR, GR and estrogen receptor (ER) by R1881, MDV3100, Z (also referred to as EPI-002 or EPI) or 8d (also referred to as iodinated EPI) were performed. FIGS. 14A-14E display competitive ligand-binding curves to indicate whether R1881, Z, antiandrogens (enzalutamide, hydroxyflutamide, bicalutamide) or 8d can displace 1 nM fluorescently labeled cognant ligand from recombinant LBDs of steroid hormone receptors by using fluorescent polarization (mP). Serial dilution was performed for each test compound. Mixtures were incubated for 5 h before measurement of fluorescent polarization."}, "[2]": {"test_system": "PC3 cells", "assay": "PC3 cell viability, alamarBlue Cell Viability Assay", "assay_type": "cell-based", "conditions": "day 3, at concentrations that reduced LNCaP proliferation", "source_text": "(§1) Effects of 8d (also referred to as I-EPI-002) on androgen-dependent proliferation of LNCaP cells treated with R1881 were compared with PC3 and DU145 cell viability by alamarBlue Cell Viability Assay (FIG. 16)."}, "[3]": {"target": "T2, progesterone receptor-beta (PRβ) (Homo sapiens, UniProt P06401)", "T2 construct": "expression plasmids for full-length human PRβ; expressed in transfected cells; host or cells: LNCaP", "T2 sequence (P06401 1-933)": "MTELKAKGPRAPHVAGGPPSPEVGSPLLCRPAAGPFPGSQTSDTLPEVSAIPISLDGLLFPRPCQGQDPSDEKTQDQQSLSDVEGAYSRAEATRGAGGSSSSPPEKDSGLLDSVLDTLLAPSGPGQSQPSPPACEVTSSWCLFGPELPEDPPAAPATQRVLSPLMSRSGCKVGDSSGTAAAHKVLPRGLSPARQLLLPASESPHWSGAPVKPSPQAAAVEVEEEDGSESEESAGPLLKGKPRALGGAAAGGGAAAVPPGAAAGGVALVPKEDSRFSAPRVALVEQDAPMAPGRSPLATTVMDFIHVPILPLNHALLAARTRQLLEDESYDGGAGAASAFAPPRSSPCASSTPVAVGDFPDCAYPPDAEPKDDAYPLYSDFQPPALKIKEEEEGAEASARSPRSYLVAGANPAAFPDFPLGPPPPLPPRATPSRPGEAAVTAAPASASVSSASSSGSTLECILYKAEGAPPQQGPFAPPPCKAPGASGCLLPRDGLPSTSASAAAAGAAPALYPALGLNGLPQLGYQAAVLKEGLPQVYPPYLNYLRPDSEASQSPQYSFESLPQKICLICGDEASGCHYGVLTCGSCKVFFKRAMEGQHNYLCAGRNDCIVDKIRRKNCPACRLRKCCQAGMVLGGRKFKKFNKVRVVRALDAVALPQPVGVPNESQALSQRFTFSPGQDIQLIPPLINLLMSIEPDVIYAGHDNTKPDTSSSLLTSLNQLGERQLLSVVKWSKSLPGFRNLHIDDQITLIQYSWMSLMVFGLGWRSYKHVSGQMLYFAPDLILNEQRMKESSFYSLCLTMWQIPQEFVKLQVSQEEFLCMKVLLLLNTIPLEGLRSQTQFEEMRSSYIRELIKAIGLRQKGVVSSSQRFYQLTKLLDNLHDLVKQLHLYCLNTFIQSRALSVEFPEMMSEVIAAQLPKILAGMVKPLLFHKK", "assay": "PRE-luciferase reporter assay in LNCaP cells cotransfected with full-length human PRβ", "assay_type": "cell-based", "conditions": "1.9 μM 8d, 10 nM progesterone, 24 h, LNCaP cells (FIG. 2B)", "experimental": "(§2) To assess specificity for the AR, parallel experiments were performed in LNCaP cells with endogenous AR and ectopic expression of other closely related human hormone receptors such as the progesterone receptor-beta (PRβ), glucocorticoid receptor (GR) and estrogen receptor-α (ER).\nLNCaP cells were cotransfected with the expression plasmids for full-length human PRβ and the relative reporter (PRE-luciferase) for 24 h, and then treated with DMSO, 5 μM MDV3100, 25 μM Z, or 1.9 μM 8d with or without 10 nM progesterone for 24 h (FIG. 2B). Compound 8d had no effect on the transcriptional activity of closely related PRβ."}, "[4]": {"target": "T3, estrogen receptor-α (ER) (Homo sapiens, UniProt P03372)", "T3 construct": "expression plasmids for full-length human ERα; expressed in transfected cells; host or cells: LNCaP", "T3 sequence (P03372 1-595)": "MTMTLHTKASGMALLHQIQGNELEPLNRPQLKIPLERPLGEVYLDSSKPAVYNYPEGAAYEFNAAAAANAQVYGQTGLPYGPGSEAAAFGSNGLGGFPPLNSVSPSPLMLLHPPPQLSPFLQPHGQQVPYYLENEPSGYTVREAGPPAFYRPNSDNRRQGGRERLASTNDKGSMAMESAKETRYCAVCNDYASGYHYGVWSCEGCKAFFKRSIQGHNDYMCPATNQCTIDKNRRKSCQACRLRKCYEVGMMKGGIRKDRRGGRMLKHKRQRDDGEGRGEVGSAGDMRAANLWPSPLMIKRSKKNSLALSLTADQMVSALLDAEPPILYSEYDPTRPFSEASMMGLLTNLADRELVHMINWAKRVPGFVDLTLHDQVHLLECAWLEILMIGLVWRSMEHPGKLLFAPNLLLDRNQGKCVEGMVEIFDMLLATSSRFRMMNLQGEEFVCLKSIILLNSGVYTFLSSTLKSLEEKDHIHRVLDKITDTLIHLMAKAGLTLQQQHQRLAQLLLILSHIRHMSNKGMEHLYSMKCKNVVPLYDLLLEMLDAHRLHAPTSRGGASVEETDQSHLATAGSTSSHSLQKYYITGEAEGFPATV", "assay": "ERE-luciferase reporter assay in LNCaP cells cotransfected with full-length human ERα", "assay_type": "cell-based", "conditions": "1.9 μM 8d, 10 nM E2 (estradiol), 24 h, LNCaP cells (FIG. 2D)", "experimental": "as §2\nFor 8d, 1 μg/mL=1.9 μM in FIGS. 2A-2D."}, "[5]": {"test_system": "LNCaP cells", "assay": "Androgen-dependent proliferation of LNCaP cells, alamarBlue Cell Viability Assay", "assay_type": "cell-based", "conditions": "LNCaP treated with R1881, day 4, alamarBlue", "source_text": "as §1"}, "[6]": {"test_system": "DU145 cells", "assay": "DU145 cell viability, alamarBlue Cell Viability Assay", "assay_type": "cell-based", "conditions": "day 3, at concentrations that reduced LNCaP proliferation", "source_text": "as §1"}}, "data": [{"smiles": "CC(C)(c1ccc(OC[C@H](O)CO)cc1)c1ccc(OC[C@H](O)CCl)c(I)c1", "note": "[Compound 8d, (R)-3-(4-(2-(4-((S)-3-chloro-2-hydroxypropoxy)-3-iodophenyl)propan-2-yl)phenoxy)propane-1,2-diol]", "values": [{"measurement": "binding to LBD of GR (displacement of fluorescently labeled ligand)", "setting": "[1]", "value": "does not bind"}, {"measurement": "viability of PC3 cells", "setting": "[2]", "value": "no effect"}, {"measurement": "transcriptional activity of PRβ (PRE-luciferase)", "setting": "[3]", "value": "no effect"}, {"measurement": "ERα activity (ERE-luciferase)", "setting": "[4]", "value": "not inhibited"}, {"measurement": "AR-dependent proliferation of LNCaP cells", "setting": "[5]", "value": "reduced"}, {"measurement": "viability of DU145 cells", "setting": "[6]", "value": "no effect"}]}]}
